Data reported in patent publication US10918642B2, “N-(substituted-phenyl)-sulfonamide derivatives as kinase inhibitors” (Nerviano Medical Sciences S.R.L., priority 2016, dated 2021).

Molecular target: PERK recombinant enzyme (cytoplasmic domain corresponding to residues 540-1115) (Homo sapiens (Human), UniProt Q9NZJ5)
Assay: PERK enzyme assay, Method 2: quantification of phosphorylated product with ATP/P33 gammaATP (Dowex resin)
Format: biochemical
Settings: Method 2 (P33 gammaATP radiometric); 52 microM ATP, 8 nM PERK, 300 microM eIF2alpha peptide substrate, 60 minutes at room temperature
Method: The biochemical activity of compounds was determined by incubation with PERK recombinant enzyme (cytoplasmic domain corresponding to residues 540-1115) and elF2alpha peptide substrate (Aminoacid sequence: LLSELSRRRIRSINK—SEQ ID Nr: 1; purchased from American Peptide Company, product #341923). This was followed by:
Method 2: Quantification of the Phosphorylated Product Formed from the Kinase Reaction in Presence of ATP (Aldrich, Cat #A2620-9).
Serially diluted compounds were incubated for 60 minutes at room temperature in the presence of ATP/P^33 gammaATP mix, substrate and enzyme in a volume of 15 microL of kinase buffer in 384-well plates (Thermo Scientific, cat #4312).
The reaction volume contains, in final concentration, 52 microM ATP, 8 nM PERK and 300 microM substrate in 50 mM Hepes pH 7.5, 3 mM MgCl2, 1 mM DTT, 3 microM Na3VO4, 0.2 mg/ml BSA. The final concentration of DMSO was 1%.
At the end of the incubation, an amount of 60 microL of Dowex resin (Sigma, customized resin 1×8 200-400 mesh cat #13858-U) in 150 mM sodium formate buffer pH=3.0 was added to stop the reaction and capture unreacted ATP/P^33 gammaATP, separating it from the phosphorylated substrate in solution. After 60 minutes of rest, a volume of 22 microL of supernatant was transferred into 384-Optiplates (Perkin-Elmer, cat #6007290). After the addition of 50 microL of Microscint 40 (Perkin-Elmer, cat #6013641), the radioactivity was counted in the TopCount (Perkin Elmer).
The data per each molecule are analyzed by an internally customized version of the SW package “Assay Explorer”, or by GraphPad Prizm software alternatively, which provides sigmoidal fittings of the curves for IC50 determination using a 4 parameter logistic equation: y=bottom+(top−bottom)/(1+10^((log IC50−x)*slope))
where x is the logarithm of the inhibitor concentration, y is the response; y starts at bottom and goes to top with a sigmoid shape.

Sequence of PERK recombinant enzyme (cytoplasmic domain corresponding to residues 540-1115) (Q9NZJ5 540-1115): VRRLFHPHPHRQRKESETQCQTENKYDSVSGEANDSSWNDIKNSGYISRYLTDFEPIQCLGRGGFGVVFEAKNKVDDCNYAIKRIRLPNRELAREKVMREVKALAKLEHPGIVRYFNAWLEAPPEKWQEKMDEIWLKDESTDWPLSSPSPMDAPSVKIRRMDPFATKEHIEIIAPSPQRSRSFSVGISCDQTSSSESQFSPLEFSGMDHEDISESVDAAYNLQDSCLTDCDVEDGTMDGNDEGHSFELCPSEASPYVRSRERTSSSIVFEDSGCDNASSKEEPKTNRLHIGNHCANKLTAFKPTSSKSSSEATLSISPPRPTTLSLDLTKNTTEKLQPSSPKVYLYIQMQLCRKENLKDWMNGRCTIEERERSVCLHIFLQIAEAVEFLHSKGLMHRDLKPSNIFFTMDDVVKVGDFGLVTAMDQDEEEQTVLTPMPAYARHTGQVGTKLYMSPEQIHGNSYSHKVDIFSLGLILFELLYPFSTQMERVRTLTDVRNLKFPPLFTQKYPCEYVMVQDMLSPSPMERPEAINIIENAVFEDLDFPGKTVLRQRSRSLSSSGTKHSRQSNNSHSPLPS

| SMILES | IC50 [nM] | pIC50 |
| --- | --- | --- |
| COc1cc(S(=O)(=O)Nc2cccc(-c3cn(C)c4ncnc(N)c34)c2F)c(F)cc1Cl [cmpd 79, N-[3-(4-Amino-7-methyl-7H-pyrrolo[2,3-d]pyrimidin-5-yl)-2-fluoro-phenyl]-4-chloro-2-fluoro-5-methoxy-benzenesulfonamide] | 15.8 to 50.1 | – |
| Cn1cc(-c2cccc(NS(=O)(=O)C3CCCCC3)c2F)c2c(N)ncnc21 [cmpd 89, Cyclohexanesulfonic acid [3-(4-amino-7-methyl-7H-pyrrolo[2,3-d]pyrimidin-5-yl)-2-fluoro-phenyl]-amide] | – | C (pIC50 < 6.8) |
| CN1CCC(n2cc(-c3cccc(NS(=O)(=O)c4ccc(Br)s4)c3F)c3c(N)ncnc32)CC1 [cmpd 77, 5-Bromo-thiophene-2-sulfonic acid {3-[4-amino-7-(1-methyl-piperidin-4-yl)-7H-pyrrolo[2,3-d]pyrimidin-5-yl]-2-fluoro-phenyl}-amide] | 15.8 to 50.1 | – |
| COc1ccc(S(=O)(=O)Nc2cccc(-c3nn(C4CCN(C)CC4)c4ncnc(N)c34)c2F)cc1Cl [cmpd 66, N-{3-[4-Amino-1-(1-methyl-piperidin-4-yl)-1H-pyrazolo[3,4-d]pyrimidin-3-yl]-2-fluoro-phenyl}-3-chloro-4-methoxy-benzenesulfonamide] | 50.1 to 158 | – |
| CN1CCC(n2cc(-c3cccc(NS(=O)(=O)c4ccc(Br)cc4F)c3F)c3c(N)ncnc32)CC1 [cmpd 72, N-{3-[4-Amino-7-(1-methyl-piperidin-4-yl)-7H-pyrrolo[2,3-d]pyrimidin-5-yl]-2-fluoro-phenyl}-4-bromo-2-fluoro-benzenesulfonamide] | 15.8 to 50.1 | – |
| CN1CCC(n2cc(-c3cccc(NS(=O)(=O)c4ccc(Cl)c(Cl)c4)c3F)c3c(N)ncnc32)CC1 [cmpd 71, N-{3-[4-Amino-7-(1-methyl-piperidin-4-yl)-7H-pyrrolo[2,3-d]pyrimidin-5-yl]-2-fluoro-phenyl}-3,4-dichloro-benzenesulfonamide] | – | AA (7.8 ≤ pIC50) |
| COc1cc(F)c(S(=O)(=O)Nc2cccc(-c3nn(C4CCN(C)CC4)c4ncnc(N)c34)c2F)cc1Cl [cmpd 61, N-{3-[4-Amino-1-(1-methyl-piperidin-4-yl)-1H-pyrazolo[3,4-d]pyrimidin-3-yl]-2-fluoro-phenyl}-5-chloro-2-fluoro-4-methoxy-benzenesulfonamide] | 15.8 to 50.1 | – |
| COc1cc(F)c(S(=O)(=O)Nc2cccc(-c3nn(C4CCNCC4)c4ncnc(N)c34)c2F)cc1Cl [cmpd 62, N-[3-(4-Amino-1-piperidin-4-yl-1H-pyrazolo[3,4-d]pyrimidin-3-yl)-2-fluoro-phenyl]-5-chloro-2-fluoro-4-methoxy-benzenesulfonamide] | 15.8 to 50.1 | – |
| COc1ccc(S(=O)(=O)Nc2cccc(-c3nn(C4CCN(C(=O)OC(C)(C)C)CC4)c4ncnc(N)c34)c2F)cc1Cl [cmpd 11, 4-{4-Amino-3-[3-(3-chloro-4-methoxy-benzenesulfonylamino)-2-fluoro-phenyl]-pyrazolo[3,4-d]pyrimidin-1-yl}-piperidine-1-carboxylic acid tert-butyl ester] | – | C (pIC50 < 6.8) |
| COc1cc(F)c(S(=O)(=O)Nc2cccc(-c3nn(C4CCN(C(C)C)CC4)c4ncnc(N)c34)c2F)cc1Cl [cmpd 65, N-{3-[4-Amino-1-(1-isopropyl-piperidin-4-yl)-1H-pyrazolo[3,4-d]pyrimidin-3-yl]-2-fluoro-phenyl}-5-chloro-2-fluoro-4-methoxy-benzenesulfonamide] | 50.1 to 158 | – |
| COc1cc(F)c(S(=O)(=O)Nc2cccc(-c3nn(C4CCN(C(=O)OC(C)(C)C)CC4)c4ncnc(N)c34)c2F)cc1Cl [cmpd 10, 4-{4-Amino-3-[3-(5-chloro-2-fluoro-4-methoxy-benzenesulfonylamino)-2-fluoro-phenyl]-pyrazolo[3,4-d]pyrimidin-1-yl}-piperidine-1-carboxylic acid tert-butyl ester] | – | C (pIC50 < 6.8) |
| COc1cc(F)c(S(=O)(=O)Nc2cccc(-c3cn(C)c4ncnc(N)c34)c2C#N)cc1Cl [cmpd 90, N-[3-(4-Amino-7-methyl-7H-pyrrolo[2,3-d]pyrimidin-5-yl)-2-cyano-phenyl]-5-chloro-2-fluoro-4-methoxy-benzenesulfonamide] | 50.1 to 158 | – |
| COc1ccc(S(=O)(=O)Nc2cccc(-c3nn(C4CCNCC4)c4ncnc(N)c34)c2F)cc1Cl [cmpd 63, N-[3-(4-Amino-1-piperidin-4-yl-1H-pyrazolo[3,4-d]pyrimidin-3-yl)-2-fluoro-phenyl]-3-chloro-4-methoxy-benzenesulfonamide] | 15.8 to 50.1 | – |
| COc1cc(F)c(S(=O)(=O)Nc2cccc(-c3cn(C4CCN(C)CC4)c4ncnc(N)c34)c2F)cc1C [cmpd 73, N-{3-[4-Amino-7-(1-methyl-piperidin-4-yl)-7H-pyrrolo[2,3-d]pyrimidin-5-yl]-2-fluoro-phenyl}-2-fluoro-4-methoxy-5-methyl-benzenesulfonamide] | – | AA (7.8 ≤ pIC50) |
